Here are results for three molecules from PMC11583597, “Brain uptake pharmacokinetics of albiglutide, dulaglutide, tirzepatide, and DA5-CH in the search for new treatments of Alzheimer’s and Parkinson’s diseases” (Tissue Barriers, 2023).

The conditions of series [1]: IRAs of the earlier study; cited from earlier work. The protocol:
The rank order of IRAs showing significant brain uptake 1 h after iv injection with respect to AUCs is similar, but not identical to the rank order of their Ki’s (see Figures 5b and 3b). Less similar is the rank order of IRAs for uptake into brain parenchyma defined as the percent reaching the brain that was in its parenchyma vs. its capillaries. The rank order of parenchymal uptake was specifically DA4-JC (89.7%) = albiglutide (BAF) (89.4%) > DA3-CH (86%) > exenatide (84.2%) > Peptide 17 (73.2%) > lixisenatide (66.8%) > dulaglutide (BAF) (61.8%) > DA5-CH (57.6%) > Peptide 21 (43.6%) > liraglu ...

For series [2] the following is noted: reported; cited from earlier work.
For series [3] the following is noted: cited from earlier work; for Brain influx within 1 h of iv injection (detection): mouse iv, radiolabeled IRA, earlier study.
Excerpt: The unidirectional blood-to-brain influx rate (Ki) calculated from Figure 2c for all four IRAs tested is graphed with previously calculated Ki’s for other IRAs[50] in Figure 3 by rank.
The nature of series [4]: Long-term (6 h) measurement of brain uptake. In kind it is in vivo, male CD-1 mice. Conditions: mouse iv 125I-IRA, 6 h circulation; corrected for vascular space and degradation; estimated. As for the experimental part:
Substances that are enzymatically stable in blood and have slow clearance from the circulation can slowly enter the brain using the extracellular pathways.[63],[64] […] Albumin enters the brain by extracellular pathways,[70] and so we used albumin in two ways: we used ^99mTc-Alb circulating for 10 min to measure vascular space and ^99mTc-Alb circulating for 6 h to measure brain uptake by extracellular pathways. This is similar to the time-differential methodology developed by Poduslo and Curran to measure a substance’s vascular space and its uptake rate.[71] Following anesthetization, the jugular vein and right carotid artery were exposed. Mice were given an iv injection of 0.1% BSA-LR containing 1 × 10^6 cpm of ^125I-IRA or 5 × 10^5 cpm of ^99mTc-Alb, which circulated for 6 h. Mice receiving only the ^125I-IRA were given an injection of 5 × 10^5 cpm of ^99mTc-Alb 10 min prior to the end of the 6 h circulation time to act as a vascular marker. A separate set of mice received an iv injection of both 1 × 10^6 cpm of ^125I-IRA and 5 × 10^5 cpm of ^99mTc-Alb that circulated for 10 min. Following the 10 min or 6 h circulation time points, blood and brain were collected as described above. Thus, we had B/S ratios for ^99mTc-Alb measuring vascular space (10 min circulation time) and B/S ratios for ^99mTc-Alb measuring vascular space plus uptake by the extracellular pathways (6 h circulation time) which could be compared to the B/S ratios for the ^125I-IRAs after 10 min and 6 h of circulation.
Immediately after counting the radioactivity, the blood and brains from the 10 min and 6 h time points were processed as described in Section 2.5 for in vivo stability. For further comparison, data from the 1 h time point were taken from the original pharmacokinetic uptake study. The ^125I-IRA brain % acid precipitation (%AP) was divided by the ^125I-IRA serum %AP at each time point to calculate the %AP B/S ratio. This value was multiplied by the B/S ratio for each ^125I-IRA to correct for degradation over the 10 min, 1 h, or 6 h time periods. […]

For series [5] the following is noted: rat, 1 hour after iv, LC-MS/MS, mean, cited from earlier work. The protocol:
This may reflect in part the sensitivity of our method using small amounts of radiolabeled peptides given the results of a recent study on semaglutide. That study used a novel liquid chromatography-tandem mass spectroscopy (LC-MS/MS) method to measure brain levels of semaglutide in adult male Sprague-Dawley rats injected iv 1 hour earlier with about […] of the unlabeled drug per animal. Detectable ...

As to `CCCCCCCCCCCCCCCC(=O)N[C@@H](CCC(=O)NCCCC[C@H](NC(=O)[C@H](C)NC(=O)[C@H](C)NC(=O)[C@H](CCC(N)=O)NC(=O)CNC(=O)[C@H](CCC(=O)O)NC(=O)[C@H](CC(C)C)NC(=O)[C@H](Cc1ccc(O)cc1)NC(=O)[C@H](CO)NC(=O)[C@H](CO)NC(=O)[C@@H](NC(=O)[C@H](CC(=O)O)NC(=O)[C@H](CO)NC(=O)[C@@H](NC(=O)[C@H](Cc1ccccc1)NC(=O)[C@@H](NC(=O)CNC(=O)[C@H](CCC(=O)O)NC(=O)[C@H](C)NC(=O)[C@@H](N)Cc1cnc[nH]1)[C@@H](C)O)[C@@H](C)O)C(C)C)C(=O)N[C@@H](CCC(=O)O)C(=O)N[C@@H](Cc1ccccc1)C(=O)N[C@H](C(=O)N[C@@H](C)C(=O)N[C@@H](Cc1c[nH]c2ccccc12)C(=O)N[C@@H](CC(C)C)C(=O)N[C@H](C(=O)N[C@@H](CCCNC(=N)N)C(=O)NCC(=O)N[C@@H](CCCNC(=N)N)C(=O)NCC(=O)O)C(C)C)[C@@H](C)CC)C(=O)O` [Liraglutide], the “Percent reaching the brain that was in parenchyma vs. capillaries” value in series [1] is reported as 28.7%. The “half-lives in human serum” value in series [2] is 11 to 13 h. The “Brain influx within 1 h of iv injection (detection)” value in series [3] was “did not detect brain influx”. Further, the “Amount present in brain at 6 h (AP corrected delta %Inj/g)” value in series [4] is reported as 0.03 %Inj/g.
For the molecule “lixisenatide: FDA-approved IRA tested in the earlier study (ref 50)”, the “Percent reaching the brain that was in parenchyma vs. capillaries” value in series [1] is on record as 66.8%. In series [3] (mouse, in vivo, iv), the “Blood to Brain Unidirectional Influx Rate (Ki)” value is 0.3271 µL/g/min.
As to `CC[C@H](C)[C@H](NC(=O)[C@H](Cc1ccccc1)NC(=O)[C@H](CCC(=O)O)NC(=O)[C@H](CCCCNC(=O)COCCOCCNC(=O)COCCOCCNC(=O)CC[C@H](NC(=O)CCCCCCCCCCCCCCCCC(=O)O)C(=O)O)NC(=O)[C@H](C)NC(=O)[C@H](C)NC(=O)[C@H](CCC(N)=O)NC(=O)CNC(=O)[C@H](CCC(=O)O)NC(=O)[C@H](CC(C)C)NC(=O)[C@H](Cc1ccc(O)cc1)NC(=O)[C@H](CO)NC(=O)[C@H](CO)NC(=O)[C@@H](NC(=O)[C@H](CC(=O)O)NC(=O)[C@H](CO)NC(=O)[C@@H](NC(=O)[C@H](Cc1ccccc1)NC(=O)[C@@H](NC(=O)CNC(=O)[C@H](CCC(=O)O)NC(=O)C(C)(C)NC(=O)[C@@H](N)Cc1cnc[nH]1)[C@@H](C)O)[C@@H](C)O)C(C)C)C(=O)N[C@@H](C)C(=O)N[C@@H](Cc1c[nH]c2ccccc12)C(=O)N[C@@H](CC(C)C)C(=O)N[C@H](C(=O)N[C@@H](CCCNC(=N)N)C(=O)NCC(=O)N[C@@H](CCCNC(=N)N)C(=O)NCC(=O)O)C(C)C` [Semaglutide], the “semaglutide level in the cerebrum” value in series [5] (cerebrum = cerebral cortex + striatum + amygdala + olfactory bulb) is on record as 7.7 ng/g. In series [5], the “semaglutide level in the cerebellum” value was 12.6 ng/g and the “semaglutide level in the hypothalamus” value is on record as 27 ng/g. The “semaglutide level in the brain as a whole” value in series [5] (no vascular wash-out) is recorded as 12.0 ng/g. Moreover, the “half-lives in human serum” value in series [2] is reported as ~ 160 h. For the same molecule, the “Brain influx within 1 h of iv injection (detection)” value in series [3] was “did not detect brain influx”. Besides, the “Amount present in brain at 6 h (AP corrected delta %Inj/g)” value in series [4] is on record as 0.022 %Inj/g.
